Legend:
NCI-H187 = experiment: Cytotoxicity against human NCI-H187 cells by resazurin staining based analysis; format: functional, cell-based
MCF7 = experiment: Cytotoxicity against human MCF7 cells by resazurin staining based analysis; format: functional, cell-based
[1] = Cytotoxicity against African green monkey Vero cells by green fluorescent protein-based assay; format: toxicity, cell-based; settings: African green monkey (Chlorocebus sabaeus)
[2] = Antioxidant activity assessed as DPPH radical scavenging activity incubated for 30 min by DPPH assay; format: functional

| SMILES | IC50 (NCI-H187) | IC50 (MCF7) | IC50 [1] | IC50 [2] |
| --- | --- | --- | --- | --- |
| CC1(C)Oc2ccc(O)cc2C(O)C1O (stereo not given) | 9.1 µM | > 240 µM | > 240 µM | > 1900 µM |
| COc1ccc2c(c1)C(O)C(O)C(C)(C)O2 (stereo not given) | > 230 µM | > 220 µM | 220 µM | > 1800 µM |
| CC1(C)C=Cc2cc3c(cc2O1)O[C@@H]1c2cc(O)c(O)cc2OC(C)(C)[C@@H]1O3 (racemic) | 45 µM | 66 µM | 46 µM | 370 µM |
| COc1cc2c(cc1O)OC(C)(C)C(O)C2 (racemic) | 55 µM | > 220 µM | > 220 µM | 180 µM |
| COc1cc2c(cc1O)OC(C)(C)[C@H]1[C@H]3[C@@H](O[C@@H]21)c1cc(OC)c(O)cc1OC3(C)C (racemic) | > 120 µM | > 120 µM | > 120 µM | 540 µM |
| CC1(C)Oc2cc(O)c(O)cc2[C@@H]2O[C@H]3c4cc(O)c(O)cc4OC(C)(C)[C@H]3[C@@H]21 (racemic) | 48 µM | > 130 µM | > 130 µM | 66 µM |
| O=C1O[C@H]([C@@H](O)CO)C(O)=C1O [ASCORBIC ACID] |  |  |  | 68 µM |
| COc1cccc2c1C(=O)c1c(O)c3c(c(O)c1C2=O)C[C@@](O)(C(=O)CO)C[C@@H]3O[C@H]1C[C@H](N)[C@H](O)[C@H](C)O1 [DOXORUBICIN] | 0.084 µM | 12 µM |  |  |
| Cc1c2ccncc2c(C)c2c1[nH]c1ccccc12 [ELLIPTECINE] | 7.8 µM |  | > 5.4 µM |  |
| CC/C(=C(\c1ccccc1)c1ccc(OCCN(C)C)cc1)c1ccccc1 [TAMOXIFEN] |  | 23 µM |  |  |
